Assay results reported in patent US20250009765A1, “COMPOSITIONS AND METHODS FOR REDUCING SLEEP DI[…] TREATING SLEEP DISORDERS” (FloraScience Inc., priority 2023, published 2025).

What was measured:
Type in all cases: in vivo, human
sleep disturbance [1] = assay: Participant global impression of change (PGIC) in sleep disturbance; settings: for Odds Ratio (95% Confidence interval), sleep disturbance PGIC: Dunnett correction; for Parameter estimate for PGIC in sleep disturbance: treatment reference placebo, log-odds scale
Protocol: (§1) The primary aim of this study was to assess the effects of three different formulations of TruCBN softgels and a formulation of 4 mg melatonin on sleep quality, relative to placebo control. There were 5 arms within the study; (1) 4 mg melatonin, (2) 25 mg CBN, (3) 50 mg CBN, (4) 100 mg CBN, and (5) placebo (see Table 1 for further details on study arm formulations). All study arms provided the test article as a softgel. Participants were instructed to take 1 softgel 1-2 hours before bed. To ensure that results were not biased, participants were randomly assigned to product, were blinded to the contents, and were not told what they were taking until the conclusion of the study. The secondary aim of the study was to assess the tolerability of the three formulations of TruCBN softgels and 4 mg melatonin, relative to placebo.
Participants received a final study survey asking about their overall experiences and impressions. Afterwards they also receive a Report containing their individualized data.
(§2) For precision, adjustments were made for sex, age, race, ethnicity, and body mass index (BMI) in every model. […] Analysis was conducted using Stata 17 and R. An intent-to-treat analysis was run, meaning that all participants who were assigned product (aside from the aforementioned exclusions) were included in the analysis according to their product assignment, regardless of product adherence or study attrition. Visuals of the predicted marginal means of health scores, rather than the raw mean scores, were prepared. Predicted marginal means were calculated from the statistical models and better represent the true differences between arms adjusting for any potential imbalances across arms. A finding that was “significant” means that the likelihood of falsely rejecting the null hypothesis that there were no differences between groups was very small (less than 5%; i.e., the p-value was less than 0.05). In other words, when certain findings were said to be “significant” they are not considered the result of random variation.

[2] = Average time to effect reported by participants; settings: oral
Protocol: (§3) After receiving study product, each participant was instructed to take 1 softgel each day orally 1-2 hours before bed and complete weekly health and product use surveys. This phase of the study lasted about 4 weeks.
Participants reported experiencing an effect between 46 and 55 minutes after taking their study product.

sleep disturbance [3] = assay: PROMIS Sleep Disturbance 8A survey, randomized blinded placebo-controlled study; settings: for Relative Risk for meaningful clinical improvement on the PROMIS Sleep Disturbance 8A / Estimated marginal percentage achieving meaningful clinical improvement on the PROMIS Sleep 8A: 95% CI in parentheses; for Observed % Achieving Meaningful Clinical Improvement on the PROMIS Sleep 8A: 30% or greater reduction from baseline; for % experiencing MCID in PROMIS Sleep Disturbance 8A score: MCID = score reduction of one half the standard deviation of the baseline score; for Estimated marginal percentage achieving meaningful clinical improvement on the PROMIS Sleep 8A: improvement = 30% or greater reduction from baseline; for Parameter Estimate for PROMIS Sleep Disturbances 8a, Treatment: reference placebo, linear mixed-effects model
Protocol: as §1
(§4) Study participants were at least 21 years old, endorsed a desire for better sleep quality, and expressed interest in taking a cannabinoid product to improve their sleep. The study was entirely virtual; participants were recruited through online recruitment channels, study product was delivered directly to participants' homes, and all data were collected via online surveys delivered to their mobile device or computer. There were four phases of the study (see FIG. 1 for study timeline): (1) Recruitment and Randomization, (2) Baseline (1 week), (3) Study period (2-5 weeks), and (4) Conclusion.
PROMIS™ Sleep Disturbance 8A: An 8-question survey, with severity thresholds based on T-scores not raw scores. The severity scores are established as follows: • “None to slight”=Less than 55 • “Mild”=55.0-59.9 • “Moderate”=60.0-69.9 • “Severe”=70 and up
The range of raw scores were from 8 to 40, with higher scores translating to greater sleep disturbance (i.e., worse sleep quality). PROMIS™ Sleep Disturbance 8A threshold for minimally important difference: One-half the standard deviation of the baseline score (Purvis, Taylor E. et al., SPINE, 2018, 43(21):1512-1520).
as §3, §2

sleep disturbance [4] = assay: PROMIS Sleep Disturbance SF4A survey, randomized blinded placebo-controlled study; settings: for Relative Risk for meaningful clinical improvement on the PROMIS Sleep SF4A / Estimated marginal percentage achieving meaningful clinical improvement on the PROMIS Sleep SF4A: 95% CI in parentheses; for Observed % Achieving Meaningful Clinical Improvement on the PROMIS Sleep SF4A: 30% or greater reduction from baseline; for Estimated marginal percentage achieving meaningful clinical improvement on the PROMIS Sleep SF4A: improvement = 30% or greater reduction from baseline
Protocol: as §1, §4
The PROMIS™ Sleep Disturbance SF4A threshold for minimally important difference: One-half the standard deviation of the baseline score (Norman, G. R. et al., Med. Care, 2003, 41:582-592).
as §3, §2

[5] = Tolerability: side effects reported by participants
Protocol: as §1, §3
The side effects for all study arms were similar in frequency and mostly mild; none were considered serious or required use of emergency or non-emergency healthcare services. The most commonly reported side effect was grogginess or drowsiness (see FIG. 7). Additional side effects reported by some participants included: chest pain, constipation, urinary tract infection, tingling in lips, dry mouth, weight gain, dry or itchy eyes, low libido, rash, and brain fog.

## CCCCCc1cc(O)c2c(c1)OC(C)(C)c1ccc(C)cc1-2 [CBN, 6,6,9-trimethyl-3-pentyl-benzo[c]chromen-1-ol]
Sleep disturbance [1]; 25 mg CBN
  Marginal mean (95% confidence interval), sleep disturbance PGIC: 3.81
  Parameter estimate for PGIC in sleep disturbance: 0.63
Sleep disturbance [1]; 25 mg CBN − placebo
  Odds Ratio (95% Confidence interval), sleep disturbance PGIC: 1.88 (0.98, 3.62)
Sleep disturbance [1]; 50 mg CBN
  Marginal mean (95% confidence interval), sleep disturbance PGIC: 3.91
  Parameter estimate for PGIC in sleep disturbance: 0.85
Sleep disturbance [1]; 50 mg CBN − placebo
  Odds Ratio (95% Confidence interval), sleep disturbance PGIC: 2.35 (1.22, 4.51)
Sleep disturbance [1]; 100 mg CBN
  Marginal mean (95% confidence interval), sleep disturbance PGIC: 3.91
  Parameter estimate for PGIC in sleep disturbance: 0.85
Sleep disturbance [1]; 100 mg CBN − placebo
  Odds Ratio (95% Confidence interval), sleep disturbance PGIC: 2.35 (1.24, 4.44)
[2]; 25 mg CBN softgel
  Average time to effect: 54.9 min
[2]; 50 mg CBN softgel
  Average time to effect: 55.5 min
[2]; 100 mg CBN softgel
  Average time to effect: 46.4 min
Sleep disturbance [3]; 25 mg CBN − placebo
  Relative Risk for meaningful clinical improvement on the PROMIS Sleep Disturbance 8A: 1.33 (0.65, 2.01)
Sleep disturbance [3]; 25 mg CBN
  Observed % Achieving Meaningful Clinical Improvement on the PROMIS Sleep 8A: 46.7%
  % experiencing MCID in PROMIS Sleep Disturbance 8A score: 46.7%
  Estimated marginal percentage achieving meaningful clinical improvement on the PROMIS Sleep 8A: 47.1% (35.41%, 62.66%)
  Parameter Estimate for PROMIS Sleep Disturbances 8a, Treatment: 0.14
Sleep disturbance [3]; 25 mg CBN, week 1
  Estimated marginal mean, PROMIS Sleep Disturbance 8A: 21.6
Sleep disturbance [3]; 25 mg CBN, week 2
  Estimated marginal mean, PROMIS Sleep Disturbance 8A: 20.6
Sleep disturbance [3]; 25 mg CBN, week 3
  Estimated marginal mean, PROMIS Sleep Disturbance 8A: 21.3
Sleep disturbance [3]; 25 mg CBN, week 4
  Estimated marginal mean, PROMIS Sleep Disturbance 8A: 20.9
Sleep disturbance [3]; 50 mg CBN − placebo
  Relative Risk for meaningful clinical improvement on the PROMIS Sleep Disturbance 8A: 1.46 (0.72, 2.2)
Sleep disturbance [3]; 50 mg CBN
  Observed % Achieving Meaningful Clinical Improvement on the PROMIS Sleep 8A: 53.6%
  % experiencing MCID in PROMIS Sleep Disturbance 8A score: 53.6%
  Estimated marginal percentage achieving meaningful clinical improvement on the PROMIS Sleep 8A: 51.6% (38.93%, 68.48%)
  Parameter Estimate for PROMIS Sleep Disturbances 8a, Treatment: 0.28
Sleep disturbance [3]; 50 mg CBN, week 1
  Estimated marginal mean, PROMIS Sleep Disturbance 8A: 20.4
Sleep disturbance [3]; 50 mg CBN, week 2
  Estimated marginal mean, PROMIS Sleep Disturbance 8A: 21
Sleep disturbance [3]; 50 mg CBN, week 3
  Estimated marginal mean, PROMIS Sleep Disturbance 8A: 20.7
Sleep disturbance [3]; 50 mg CBN, week 4
  Estimated marginal mean, PROMIS Sleep Disturbance 8A: 20.3
Sleep disturbance [3]; 100 mg CBN − placebo
  Relative Risk for meaningful clinical improvement on the PROMIS Sleep Disturbance 8A: 1.39 (0.7, 2.08)
Sleep disturbance [3]; 100 mg CBN
  Observed % Achieving Meaningful Clinical Improvement on the PROMIS Sleep 8A: 50.0%
  % experiencing MCID in PROMIS Sleep Disturbance 8A score: 50.0%
  Estimated marginal percentage achieving meaningful clinical improvement on the PROMIS Sleep 8A: 49.1% (36.96%, 65.24%)
  Parameter Estimate for PROMIS Sleep Disturbances 8a, Treatment: 0.59
Sleep disturbance [3]; 100 mg CBN, week 1
  Estimated marginal mean, PROMIS Sleep Disturbance 8A: 20.99
Sleep disturbance [3]; 100 mg CBN, week 2
  Estimated marginal mean, PROMIS Sleep Disturbance 8A: 21.77
Sleep disturbance [3]; 100 mg CBN, week 3
  Estimated marginal mean, PROMIS Sleep Disturbance 8A: 20.84
Sleep disturbance [3]; 100 mg CBN, week 4
  Estimated marginal mean, PROMIS Sleep Disturbance 8A: 20.9
Sleep disturbance [4]; 25 mg CBN − placebo
  Relative Risk for meaningful clinical improvement on the PROMIS Sleep SF4A: 1.35 (0.66, 2.03)
Sleep disturbance [4]; 25 mg CBN
  Observed % Achieving Meaningful Clinical Improvement on the PROMIS Sleep SF4A: 47.83%
  Estimated marginal percentage achieving meaningful clinical improvement on the PROMIS Sleep SF4A: 46.28% (34.73%, 61.7%)
Sleep disturbance [4]; 25 mg CBN, week 1
  Estimated marginal mean, PROMIS Sleep Disturbance SF4A: 11.0
Sleep disturbance [4]; 25 mg CBN, week 2
  Estimated marginal mean, PROMIS Sleep Disturbance SF4A: 10.81
Sleep disturbance [4]; 25 mg CBN, week 3
  Estimated marginal mean, PROMIS Sleep Disturbance SF4A: 11.1
Sleep disturbance [4]; 25 mg CBN, week 4
  Estimated marginal mean, PROMIS Sleep Disturbance SF4A: 10.9
Sleep disturbance [4]; 50 mg CBN − placebo
  Relative Risk for meaningful clinical improvement on the PROMIS Sleep SF4A: 1.59 (0.81, 2.37)
Sleep disturbance [4]; 50 mg CBN
  Observed % Achieving Meaningful Clinical Improvement on the PROMIS Sleep SF4A: 58.33%
  Estimated marginal percentage achieving meaningful clinical improvement on the PROMIS Sleep SF4A: 54.76% (41.80%, 71.7%)
Sleep disturbance [4]; 50 mg CBN, week 1
  Estimated marginal mean, PROMIS Sleep Disturbance SF4A: 10.7
Sleep disturbance [4]; 50 mg CBN, week 2
  Estimated marginal mean, PROMIS Sleep Disturbance SF4A: 10.9
Sleep disturbance [4]; 50 mg CBN, week 3
  Estimated marginal mean, PROMIS Sleep Disturbance SF4A: 10.8
Sleep disturbance [4]; 50 mg CBN, week 4
  Estimated marginal mean, PROMIS Sleep Disturbance SF4A: 10.3
Sleep disturbance [4]; 100 mg CBN − placebo
  Relative Risk for meaningful clinical improvement on the PROMIS Sleep SF4A: 1.47 (0.75, 2.19)
Sleep disturbance [4]; 100 mg CBN
  Observed % Achieving Meaningful Clinical Improvement on the PROMIS Sleep SF4A: 53.19%
  Estimated marginal percentage achieving meaningful clinical improvement on the PROMIS Sleep SF4A: 50.56% (38.37%, 66.6%)
Sleep disturbance [4]; 100 mg CBN, week 1
  Estimated marginal mean, PROMIS Sleep Disturbance SF4A: 10.8
Sleep disturbance [4]; 100 mg CBN, week 2
  Estimated marginal mean, PROMIS Sleep Disturbance SF4A: 11.33
Sleep disturbance [4]; 100 mg CBN, week 3
  Estimated marginal mean, PROMIS Sleep Disturbance SF4A: 10.8
Sleep disturbance [4]; 100 mg CBN, week 4
  Estimated marginal mean, PROMIS Sleep Disturbance SF4A: 10.8
[5]; 25 mg CBN
  % of participants reporting any side effects: 6.8%
[5]; 50 mg CBN
  % of participants reporting any side effects: 12.9%
[5]; 100 mg CBN
  % of participants reporting any side effects: 7.9%

## COc1ccc2[nH]cc(CCNC(C)=O)c2c1 [melatonin, reference compound]
Sleep disturbance [1]; 4 mg Melatonin
  Parameter estimate for PGIC in sleep disturbance: 0.79
Sleep disturbance [1]; 4 mg melatonin
  Marginal mean (95% confidence interval), sleep disturbance PGIC: 3.88
Sleep disturbance [1]; 4 mg melatonin − placebo
  Odds Ratio (95% Confidence interval), sleep disturbance PGIC: 2.21 (1.15, 4.21)
[2]; 4 mg melatonin softgel
  Average time to effect: 49.1 min
Sleep disturbance [3]; 4 mg Melatonin
  Parameter Estimate for PROMIS Sleep Disturbances 8a, Treatment: −0.56
Sleep disturbance [3]; 4 mg melatonin − placebo
  Relative Risk for meaningful clinical improvement on the PROMIS Sleep Disturbance 8A: 1.43 (0.7, 2.16)
Sleep disturbance [3]; 4 mg melatonin
  Observed % Achieving Meaningful Clinical Improvement on the PROMIS Sleep 8A: 51.9%
  % experiencing MCID in PROMIS Sleep Disturbance 8A score: 51.9%
  Estimated marginal percentage achieving meaningful clinical improvement on the PROMIS Sleep 8A: 50.5% (37.54%, 67.94%)
Sleep disturbance [3]; 4 mg melatonin, week 1
  Estimated marginal mean, PROMIS Sleep Disturbance 8A: 20.7
Sleep disturbance [3]; 4 mg melatonin, week 2
  Estimated marginal mean, PROMIS Sleep Disturbance 8A: 20.4
Sleep disturbance [3]; 4 mg melatonin, week 3
  Estimated marginal mean, PROMIS Sleep Disturbance 8A: 20.7
Sleep disturbance [3]; 4 mg melatonin, week 4
  Estimated marginal mean, PROMIS Sleep Disturbance 8A: 20.4
Sleep disturbance [4]; 4 mg melatonin − placebo
  Relative Risk for meaningful clinical improvement on the PROMIS Sleep SF4A: 1.49 (0.74, 2.25)
Sleep disturbance [4]; 4 mg melatonin
  Observed % Achieving Meaningful Clinical Improvement on the PROMIS Sleep SF4A: 53.25%
  Estimated marginal percentage achieving meaningful clinical improvement on the PROMIS Sleep SF4A: 51.25% (38.25%, 68.7%)
Sleep disturbance [4]; 4 mg melatonin, week 1
  Estimated marginal mean, PROMIS Sleep Disturbance SF4A: 10.8
Sleep disturbance [4]; 4 mg melatonin, week 2
  Estimated marginal mean, PROMIS Sleep Disturbance SF4A: 10.7
Sleep disturbance [4]; 4 mg melatonin, week 3
  Estimated marginal mean, PROMIS Sleep Disturbance SF4A: 10.7
Sleep disturbance [4]; 4 mg melatonin, week 4
  Estimated marginal mean, PROMIS Sleep Disturbance SF4A: 10.5
[5]; 4 mg melatonin
  % of participants reporting any side effects: 11.9%
